Test results published in patent US12391737B2, “Soluble NPY2 receptor agonists” (Boehringer Ingelheim International GmbH, priority 2020, dated 2025).

Columns and labels:
[1] = Solubility determination; settings: for Sol6: pH 6; for Sol7: pH 7
How it was run: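 Solubility is derived from the ratio of reversed-phase peak areas, filtered sample over a control dissolved at 1 mg/ml in 50% acetonitrile. Peptides are agitated for 2 hours at room temperature in 0.1 M sodium diphosphate at pH 6.4 or 7.0, aiming at 10 mg/ml.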

[2] = target: T1, Human Neuropeptide Y2 Receptor (Homo sapiens, UniProt P49146); assay: Radioligand binding competition assay (RLB); settings: Table 3, 125I-PYY(1-36) competition; read-out: Ki
T1 construct: purchased CHEMICON HTS066M
T1 sequence (P49146 1-381): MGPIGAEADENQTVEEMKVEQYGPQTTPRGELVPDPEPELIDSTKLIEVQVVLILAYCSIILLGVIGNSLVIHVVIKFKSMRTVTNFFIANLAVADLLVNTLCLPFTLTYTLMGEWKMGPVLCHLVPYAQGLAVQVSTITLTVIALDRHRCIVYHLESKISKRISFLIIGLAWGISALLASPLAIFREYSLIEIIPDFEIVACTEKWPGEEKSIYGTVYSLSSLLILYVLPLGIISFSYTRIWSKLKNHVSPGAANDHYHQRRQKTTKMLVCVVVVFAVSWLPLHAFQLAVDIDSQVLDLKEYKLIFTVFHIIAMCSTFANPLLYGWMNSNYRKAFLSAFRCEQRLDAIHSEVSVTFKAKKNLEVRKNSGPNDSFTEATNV
How it was run: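 Filtration competition binding on membranes from cells expressing the receptor, 0.5 μg protein/well, in 50 mM HEPES, 5 mM MgCl2, 1 mM CaCl2, pH 7.4, with 0.2% ovalbumin. Incubation ran 2 h at room temperature, followed by GF/C filtration and scintillation counting. IC50 came from nonlinear sigmoidal fits.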

Sol6 [1] [mg/mL]	Sol7 [1] [mg/mL]	Ki [2] [nM]	Compound
9.6	9.7	4.68	CC(C)CC(=O)N[C@@H](C)C(=O)N1CCC[C@H]1C(=O)N[C@@H](C)C(=O)N[C@@H](CCCCNC(=O)CCCCCNC(=O)CC[C@H](NC(=O)CCCCCCCCCCCCCCCCC(=O)O)C(=O)O)C(=O)N1CCC[C@H]1C(=O)N[C@@H](CCC(=O)O)C(=O)N[C@@H](CCC(=O)O)C(=O)N[C@@H](CC(=O)O)C(=O)N[C@@H](C)C(=O)N[C@@H](CCC(=O)O)C(=O)N1CCC[C@H]1C(=O)N[C@@H](CCC(=O)O)C(=O)N[C@@H](CCC(=O)O)C(=O)N[C@@H](CC(C)C)C(=O)N[C@@H](CCC(N)=O)C(=O)N[C@@H](CCCNC(=N)N)C(=O)N[C@@H](Cc1ccc(O)cc1)C(=O)N[C@@H](Cc1ccc(O)cc1)C(=O)N[C@H](C(=O)N[C@@H](CO)C(=O)N[C@@H](CC(C)C)C(=O)N[C@@H](CCCNC(=N)N)C(=O)N[C@@H](Cc1c[nH]cn1)C(=O)N[C@@H](Cc1ccc(O)cc1)C(=O)N[C@@H](Cc1ccc(O)cc1)C(=O)N[C@@H](CC(N)=O)C(=O)N[C@@H](Cc1c[nH]c2ccccc12)C(=O)N[C@@H](CC(C)C)C(=O)N[C@H](C(=O)N[C@@H](CCCNC(=N)N)C(=O)N[C@@H](CCC(N)=O)C(=O)N[C@@H](CCCNC(=N)N)C(=O)N[C@@H](Cc1ccc(O)cc1)C(N)=O)[C@@H](C)O)C(C)C [Compound 133, N{alpha-4}-(3-methylbutanoyl)-N{epsilon-7}-(6-[(4S)-4-carboxy-4-(17-carboxyheptadecanamido)butanamido]hexanoyl)-[4A,6A,7K,9E,13E,18Q,22V,28Y,30W,31L]-hPYY(4-36)]
10.0	10.0	2.8	CC(C)CC(=O)N[C@@H](C)C(=O)N1CCC[C@H]1C(=O)N[C@@H](CCC(=O)O)C(=O)N[C@@H](CCCCNC(=O)CCCCCNC(=O)CC[C@H](NC(=O)CCCCCCCCCCCCCCCCC(=O)O)C(=O)O)C(=O)N1CCC[C@H]1C(=O)N[C@@H](CCC(=O)O)C(=O)N[C@@H](CCC(=O)O)C(=O)N[C@@H](CC(=O)O)C(=O)N[C@@H](C)C(=O)N[C@H](C(=O)N1CCC[C@H]1C(=O)N[C@@H](CCC(=O)O)C(=O)N[C@@H](CCC(=O)O)C(=O)N[C@@H](CCC(N)=O)C(=O)N[C@@H](CCC(N)=O)C(=O)N[C@@H](CCCNC(=N)N)C(=O)N[C@@H](Cc1ccc(O)cc1)C(=O)N[C@@H](Cc1ccc(O)cc1)C(=O)N[C@H](C(=O)N[C@@H](CO)C(=O)N[C@@H](CC(C)C)C(=O)N[C@@H](CCCNC(=N)N)C(=O)N[C@@H](Cc1c[nH]cn1)C(=O)N[C@@H](Cc1ccc(O)cc1)C(=O)N[C@@H](Cc1ccc(O)cc1)C(=O)N[C@@H](CC(N)=O)C(=O)N[C@@H](Cc1c[nH]c2ccccc12)C(=O)N[C@@H](CC(C)C)C(=O)N[C@H](C(=O)N[C@@H](CCCNC(=N)N)C(=O)N[C@@H](CCC(N)=O)C(=O)N[C@@H](CCCNC(=N)N)C(=O)N[C@@H](Cc1ccc(O)cc1)C(N)=O)[C@@H](C)O)C(C)C)[C@@H](C)O [Compound 134, N{alpha-4}-(3-methylbutanoyl)-N{epsilon-7}-(6-[(4S)-4-carboxy-4-(17-carboxyheptadecanamido)butanamido]hexanoyl)-[4A,7K,9E,13T,17Q,18Q,22V,28Y,30W,31L]-hPYY(4-36)]

More lines, now with the values behind:

Compound	Sol6 [1] [mg/mL]	Sol7 [1] [mg/mL]	Ki [2] [nM]
CC(C)CC(=O)N[C@@H](C)C(=O)N1CCC[C@H]1C(=O)N[C@@H](CCC(=O)O)C(=O)N[C@@H](CCCCNC(=O)CCCCCNC(=O)CC[C@H](NC(=O)CCCCCCCCCCCCCCCCC(=O)O)C(=O)O)C(=O)N1CCC[C@H]1C(=O)N[C@@H](CCC(=O)O)C(=O)N[C@@H](CCC(=O)O)C(=O)N[C@@H](CC(=O)O)C(=O)N[C@@H](C)C(=O)N[C@H](C(=O)N1CCC[C@H]1C(=O)N[C@@H](CCC(=O)O)C(=O)N[C@@H](CCC(=O)O)C(=O)N[C@@H](CC(C)C)C(=O)N[C@@H](CCC(N)=O)C(=O)N[C@@H](CC(C)C)C(=O)N[C@@H](Cc1ccc(O)cc1)C(=O)N[C@@H](Cc1ccc(O)cc1)C(=O)N[C@H](C(=O)N[C@@H](CO)C(=O)N[C@@H](CC(C)C)C(=O)N[C@@H](CCCNC(=N)N)C(=O)N[C@@H](Cc1c[nH]cn1)C(=O)N[C@@H](Cc1ccc(O)cc1)C(=O)N[C@@H](Cc1ccc(O)cc1)C(=O)N[C@@H](CC(N)=O)C(=O)N[C@@H](Cc1c[nH]c2ccccc12)C(=O)N[C@@H](CC(C)C)C(=O)N[C@H](C(=O)N[C@@H](CCCNC(=N)N)C(=O)N[C@@H](CCC(N)=O)C(=O)N[C@@H](CCCNC(=N)N)C(=O)N[C@@H](Cc1ccc(O)cc1)C(N)=O)[C@@H](C)O)C(C)C)[C@@H](C)O [Compound 130, N{alpha-4}-(3-methylbutanoyl)-N{epsilon-7}-(6-[(4S)-4-carboxy-4-(17-carboxyheptadecanamido)butanamido]hexanoyl)-[4A,7K,9E,13T,18Q,19L,22V,28Y,30W,31L]-hPYY(4-36)]	9.9	10.0	9.36
CC[C@H](C)[C@H](NC(=O)[C@H](CCC(=O)O)NC(=O)[C@H](CCC(=O)O)NC(=O)[C@@H]1CCCN1C(=O)[C@H](CCC(=O)O)NC(=O)[C@H](C)NC(=O)[C@H](CC(=O)O)NC(=O)[C@H](C)NC(=O)[C@H](CCC(=O)O)NC(=O)[C@@H]1CCCN1C(=O)[C@H](CCCCNC(=O)CCCCCNC(=O)CC[C@H](NC(=O)CCCCCCCCCCCCCCCCC(=O)O)C(=O)O)NC(=O)[C@H](CCC(=O)O)NC(=O)[C@@H]1CCCN1C(=O)[C@H](C)NC(=O)CC(C)C)C(=O)N[C@@H](CCC(N)=O)C(=O)N[C@@H](CCCNC(=N)N)C(=O)N[C@@H](Cc1ccc(O)cc1)C(=O)N[C@@H](Cc1ccc(O)cc1)C(=O)N[C@H](C(=O)N[C@@H](C)C(=O)N[C@@H](CC(C)C)C(=O)N[C@@H](CCCNC(=N)N)C(=O)N[C@@H](Cc1c[nH]cn1)C(=O)N[C@@H](Cc1ccc(O)cc1)C(=O)N[C@@H](Cc1ccc(O)cc1)C(=O)N[C@@H](CC(N)=O)C(=O)N[C@@H](Cc1c[nH]c2ccccc12)C(=O)N[C@@H](CC(C)C)C(=O)N[C@H](C(=O)N[C@@H](CCCNC(=N)N)C(=O)N[C@@H](CCC(N)=O)C(=O)N[C@@H](CCCNC(=N)N)C(=O)N[C@@H](Cc1ccc(O)cc1)C(N)=O)[C@@H](C)O)C(C)C [Compound 131, N{alpha-4}-(3-methylbutanoyl)-N{epsilon-7}-(6-[(4S)-4-carboxy-4-(17-carboxyheptadecanamido)butanamido]hexanoyl)-[4A,7K,9E,10A,13E,17I,18Q,22V,23A,28Y,30W,31L]-hPYY(4-36)]	10.0	>10.0	1.54
CC(C)CC(=O)N[C@@H](C)C(=O)N1CCC[C@H]1C(=O)N[C@@H](CCC(=O)O)C(=O)N[C@@H](CCCCNC(=O)CCCCCNC(=O)CC[C@H](NC(=O)CCCCCCCCCCCCCCCCC(=O)O)C(=O)O)C(=O)N1CCC[C@H]1C(=O)N[C@@H](CCC(=O)O)C(=O)N[C@@H](C)C(=O)N[C@@H](CC(=O)O)C(=O)N[C@@H](C)C(=O)N[C@H](C(=O)N1CCC[C@H]1C(=O)N[C@@H](CCC(=O)O)C(=O)N[C@@H](CCC(=O)O)C(=O)N[C@@H](CC(C)C)C(=O)N[C@@H](CCC(N)=O)C(=O)N[C@@H](CCCNC(=N)N)C(=O)N[C@@H](Cc1ccc(O)cc1)C(=O)N[C@@H](Cc1ccc(O)cc1)C(=O)N[C@H](C(=O)N[C@@H](CO)C(=O)N[C@@H](CC(C)C)C(=O)N[C@@H](CCCNC(=N)N)C(=O)N[C@@H](Cc1c[nH]cn1)C(=O)N[C@@H](Cc1ccc(O)cc1)C(=O)N[C@@H](Cc1ccc(O)cc1)C(=O)N[C@@H](CC(N)=O)C(=O)N[C@@H](Cc1c[nH]c2ccccc12)C(=O)N[C@@H](CC(C)C)C(=O)N[C@H](C(=O)N[C@@H](CCCNC(=N)N)C(=O)N[C@@H](CCC(N)=O)C(=O)N[C@@H](CCCNC(=N)N)C(=O)N[C@@H](Cc1ccc(O)cc1)C(N)=O)[C@@H](C)O)C(C)C)[C@@H](C)O [Compound 132, N{alpha-4}-(3-methylbutanoyl)-N{epsilon-7}-(6-[(4S)-4-carboxy-4-(17-carboxyheptadecanamido)butanamido]hexanoyl)-[4A,7K,9E,10A,13T,18Q,22V,28Y,30W,31L]-hPYY(4-36)]	8.7	9.3	2.75
